Laboratory results: ChEMBL document CHEMBL1201862, “PubChem BioAssay data set” (2004)
The source made the active and inactive calls.

How the values were obtained:
[1] = SFLLRN-induced P-Selectin Platelet Surface Expression Measured in Cell-Based System Using Flow Cytometry - 2016-03_Inhibitor_Dose_DryPowder_Activity_Set3. [Related pubchem assays (depositor defined):AID1678]; type: functional
[2] = blockers of SFLLRN-triggered platelet ATP secretion – cell-based, human platelets, luminescence, dry powder, dose response (AID 493100); type: functional
[3] = Luminescence Cell-Based Dose Response Follow up to Identify Inhibitors of Platelet Dense Granule Release. [Related pubchem assays (depositor defined):AID1663, AID1678, AID1889, AID2519]; type: functional
[4] = inhibitors of SFLLRN-triggered platelet P-selectin exposure, dose response, cell-based, fluorescence, flow cytometry, human platelets (AID 2511); type: functional
[5] = biological target: Luciferin 4-monooxygenase (Photinus pyralis, UniProt P08659); assay: firefly luciferase enzyme inhibitors, dose response, biochemical, luminescence (AID 1891)
Sequence of Luciferin 4-monooxygenase (P08659 whole entry): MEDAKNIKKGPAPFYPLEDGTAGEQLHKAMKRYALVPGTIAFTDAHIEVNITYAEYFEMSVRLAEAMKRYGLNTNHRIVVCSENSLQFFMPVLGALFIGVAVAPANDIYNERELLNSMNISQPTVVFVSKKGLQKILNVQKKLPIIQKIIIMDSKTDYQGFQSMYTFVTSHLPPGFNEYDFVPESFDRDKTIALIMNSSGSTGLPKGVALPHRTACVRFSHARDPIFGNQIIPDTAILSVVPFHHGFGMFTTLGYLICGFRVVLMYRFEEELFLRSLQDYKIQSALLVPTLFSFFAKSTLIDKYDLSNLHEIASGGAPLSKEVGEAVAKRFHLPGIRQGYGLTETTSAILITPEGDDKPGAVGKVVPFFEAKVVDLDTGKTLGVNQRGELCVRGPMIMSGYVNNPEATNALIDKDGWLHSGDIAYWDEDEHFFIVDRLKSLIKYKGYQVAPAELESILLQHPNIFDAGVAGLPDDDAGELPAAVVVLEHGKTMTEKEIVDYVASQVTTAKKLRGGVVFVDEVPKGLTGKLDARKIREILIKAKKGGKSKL

[6] = Luminescence Cell-Based Dose Confirmation HTS to Identify Inhibitors of Platelet Dense Granule Release. [Related pubchem assays: 1663 (Primary HTS), 1678 (Summary of Project)]; type: functional
[7] = biological target: Dual specificity protein phosphatase 3 (Homo sapiens, UniProt P51452); assay: SAR VHR1 Fluorescent Assay for In Vitro dose response studies Set 3. [Related pubchem assays (depositor defined):AID1654, AID1661, AID1878]; type: functional
Sequence of Dual specificity protein phosphatase 3 (P51452 whole entry): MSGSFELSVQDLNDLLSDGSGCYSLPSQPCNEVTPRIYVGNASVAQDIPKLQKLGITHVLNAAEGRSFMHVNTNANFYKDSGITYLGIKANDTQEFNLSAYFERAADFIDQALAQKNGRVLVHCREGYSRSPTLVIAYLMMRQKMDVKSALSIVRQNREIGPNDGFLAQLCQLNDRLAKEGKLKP

[8] = biological target: Intestinal-type alkaline phosphatase (Mus musculus, UniProt P24822); assay: PubChem AID 488875; type: functional
Sequence of Intestinal-type alkaline phosphatase (Mus musculus, UniProt P24822) (P24822 whole entry): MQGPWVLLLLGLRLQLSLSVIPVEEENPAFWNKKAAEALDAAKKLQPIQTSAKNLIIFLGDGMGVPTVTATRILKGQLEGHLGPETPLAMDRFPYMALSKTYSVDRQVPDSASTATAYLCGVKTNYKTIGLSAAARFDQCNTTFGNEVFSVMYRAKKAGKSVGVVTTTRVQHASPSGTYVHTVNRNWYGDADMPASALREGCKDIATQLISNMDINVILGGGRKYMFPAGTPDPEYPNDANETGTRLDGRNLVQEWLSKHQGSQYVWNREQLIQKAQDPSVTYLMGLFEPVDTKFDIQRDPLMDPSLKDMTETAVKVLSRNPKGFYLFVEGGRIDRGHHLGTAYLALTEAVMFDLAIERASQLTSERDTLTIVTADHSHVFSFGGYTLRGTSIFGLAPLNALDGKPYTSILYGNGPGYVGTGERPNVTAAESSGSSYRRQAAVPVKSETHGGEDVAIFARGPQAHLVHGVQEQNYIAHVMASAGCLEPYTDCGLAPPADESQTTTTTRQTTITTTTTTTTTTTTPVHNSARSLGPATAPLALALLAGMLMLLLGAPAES

[9] = biological target: T1, Intestinal-type alkaline phosphatase (Homo sapiens, UniProt P09923); assay: human intestinal alkaline phosphatase activators, dose response, biochemical, luminescence, uHTS hits (AID 463120); type: functional
T1 sequence (P09923 whole entry): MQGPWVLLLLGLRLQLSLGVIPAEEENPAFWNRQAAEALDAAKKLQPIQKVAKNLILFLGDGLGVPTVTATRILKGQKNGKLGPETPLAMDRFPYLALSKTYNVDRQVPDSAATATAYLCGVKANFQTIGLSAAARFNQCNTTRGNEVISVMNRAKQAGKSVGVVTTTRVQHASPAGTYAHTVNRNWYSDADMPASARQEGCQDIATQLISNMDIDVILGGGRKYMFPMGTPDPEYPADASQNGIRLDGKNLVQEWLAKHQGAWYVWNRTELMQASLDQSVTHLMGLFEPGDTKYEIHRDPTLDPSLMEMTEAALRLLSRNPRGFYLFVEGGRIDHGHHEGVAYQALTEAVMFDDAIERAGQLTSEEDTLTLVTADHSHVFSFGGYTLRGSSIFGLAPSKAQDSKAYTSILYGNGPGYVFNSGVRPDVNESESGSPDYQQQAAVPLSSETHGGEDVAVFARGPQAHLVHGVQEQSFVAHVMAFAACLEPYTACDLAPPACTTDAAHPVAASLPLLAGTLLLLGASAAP

[10] = biological target: T2, Alkaline phosphatase, tissue-nonspecific isozyme (Homo sapiens, UniProt P05186); assay: TNAP enzyme activators, dose response, selectivity assay for human IAP activator project, biochemical, TNAP isozyme, human IAP uHTS hits (AID 488886); type: functional;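 note: potency of compounds raising TNAP activity as a selectivity check on IAP activators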
T2 sequence (P05186 whole entry): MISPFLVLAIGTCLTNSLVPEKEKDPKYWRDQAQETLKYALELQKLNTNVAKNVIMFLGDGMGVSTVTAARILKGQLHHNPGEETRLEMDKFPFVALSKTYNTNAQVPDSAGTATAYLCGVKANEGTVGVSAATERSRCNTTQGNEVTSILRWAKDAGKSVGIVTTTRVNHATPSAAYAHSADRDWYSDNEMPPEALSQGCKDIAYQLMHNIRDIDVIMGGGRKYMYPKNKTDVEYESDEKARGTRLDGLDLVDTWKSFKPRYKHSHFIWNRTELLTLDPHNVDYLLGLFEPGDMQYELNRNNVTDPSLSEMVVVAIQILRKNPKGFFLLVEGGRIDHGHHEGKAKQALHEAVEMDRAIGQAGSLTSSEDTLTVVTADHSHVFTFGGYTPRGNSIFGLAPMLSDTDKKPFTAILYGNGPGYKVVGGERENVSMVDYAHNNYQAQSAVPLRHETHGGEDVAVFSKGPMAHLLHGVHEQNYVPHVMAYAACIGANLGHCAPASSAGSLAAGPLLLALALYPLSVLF

[11] = biological target: T1, Intestinal-type alkaline phosphatase; assay: human IAP activators, dose response, biochemical, luminescent, uHTS hits, set 2 (AID 488817); type: functional;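 note: potency of activators that raise enzyme activity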
[12] = biological target: G-protein coupled receptor 55 (Homo sapiens, UniProt Q9Y2T6); assay: GPR55 antagonists, SAR follow-up, counter-screen for GPR35 antagonist project, imaging, image-based (AID 2397); type: functional
Sequence of G-protein coupled receptor 55 (Q9Y2T6 whole entry): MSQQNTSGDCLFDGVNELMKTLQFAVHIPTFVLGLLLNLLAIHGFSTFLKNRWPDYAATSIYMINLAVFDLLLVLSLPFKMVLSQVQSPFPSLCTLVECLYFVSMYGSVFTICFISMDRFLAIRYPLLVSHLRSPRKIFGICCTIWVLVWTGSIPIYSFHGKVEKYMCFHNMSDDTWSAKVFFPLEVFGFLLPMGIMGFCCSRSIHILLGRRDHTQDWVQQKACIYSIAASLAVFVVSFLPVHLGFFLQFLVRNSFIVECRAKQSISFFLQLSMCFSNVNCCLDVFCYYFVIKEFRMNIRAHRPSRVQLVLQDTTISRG

[13] = biological target: Cytochrome P450 3A4 (Homo sapiens, UniProt P08684);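 note: CYP3A4 tested as one member of a cytochrome P450 panel screen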
Sequence of Cytochrome P450 3A4 (P08684 whole entry): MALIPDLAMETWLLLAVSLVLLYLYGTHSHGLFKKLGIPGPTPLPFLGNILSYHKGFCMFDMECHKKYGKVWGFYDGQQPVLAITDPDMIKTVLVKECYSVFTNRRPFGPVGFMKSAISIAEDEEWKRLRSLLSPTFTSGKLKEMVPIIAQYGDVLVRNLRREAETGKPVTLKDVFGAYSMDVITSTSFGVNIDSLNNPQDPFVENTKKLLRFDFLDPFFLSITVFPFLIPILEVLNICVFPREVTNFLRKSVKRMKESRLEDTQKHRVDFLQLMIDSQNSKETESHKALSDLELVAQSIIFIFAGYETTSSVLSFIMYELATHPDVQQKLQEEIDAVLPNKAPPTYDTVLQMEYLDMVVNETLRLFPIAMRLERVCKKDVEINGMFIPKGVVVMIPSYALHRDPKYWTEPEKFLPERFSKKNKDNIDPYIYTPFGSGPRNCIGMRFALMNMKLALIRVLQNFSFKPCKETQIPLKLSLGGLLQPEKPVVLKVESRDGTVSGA

[14] = Luminescence Cell-Based Dose Retest to Confirm Inhibitors of Cancer Stem Cells. [Related pubchem assays (depositor defined):AID2717, AID2721]; type: functional; conditions: Homo sapiens
[15] = cytotoxicity in HMLE control line with eGFP shRNA, dose response, counter-screen for HMLE_sh_ECad selective toxicity project, cell-based, HMLE_sh_eGFP, luminescence (AID 463074); type: functional, Homo sapiens;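 note: HMLE human mammary epithelial cells expressing control shRNA against eGFP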
[16] = biological target: T3, RNA-binding protein pos-1 (Caenorhabditis elegans, UniProt G5EF15); assay: inhibitors of POS-1/mex-3 RNA binding, dose response, biochemical, fluorescence polarization (AID 1964);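 note: purified POS-1 fused to maltose binding protein made in E. coli; potency of compounds blocking POS-1 binding to fluorescent RNA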
T3 sequence (G5EF15 whole entry): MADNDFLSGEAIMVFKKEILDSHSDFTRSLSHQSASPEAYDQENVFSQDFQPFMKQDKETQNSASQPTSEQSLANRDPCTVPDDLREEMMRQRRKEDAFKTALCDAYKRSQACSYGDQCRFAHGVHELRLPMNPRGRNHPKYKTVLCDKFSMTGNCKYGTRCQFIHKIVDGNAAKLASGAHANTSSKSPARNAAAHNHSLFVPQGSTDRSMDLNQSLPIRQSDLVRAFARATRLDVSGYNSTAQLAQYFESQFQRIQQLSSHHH

[17] = biological target: T4, Zinc finger protein mex-5 (Caenorhabditis elegans, UniProt Q9XUB2); assay: MEX-5/TCR-2 RNA interaction inhibitors, dose response, biochemical, C. elegans, fluorescence polarization (AID 1960)
T4 sequence (Q9XUB2 whole entry): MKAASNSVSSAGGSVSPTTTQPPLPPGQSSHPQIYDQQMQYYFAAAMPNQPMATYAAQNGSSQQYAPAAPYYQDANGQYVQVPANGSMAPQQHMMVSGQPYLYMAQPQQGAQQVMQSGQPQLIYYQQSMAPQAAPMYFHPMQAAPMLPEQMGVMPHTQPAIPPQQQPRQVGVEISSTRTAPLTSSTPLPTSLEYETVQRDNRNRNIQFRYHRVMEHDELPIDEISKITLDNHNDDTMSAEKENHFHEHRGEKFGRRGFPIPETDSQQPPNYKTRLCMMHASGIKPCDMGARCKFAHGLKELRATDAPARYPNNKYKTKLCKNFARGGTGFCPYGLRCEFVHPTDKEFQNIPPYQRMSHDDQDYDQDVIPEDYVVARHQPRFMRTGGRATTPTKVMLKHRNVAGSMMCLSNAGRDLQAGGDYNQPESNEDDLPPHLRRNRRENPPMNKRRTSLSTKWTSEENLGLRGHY

[18] = biological target: UDP-galactopyranose mutase (Mycobacterium tuberculosis, UniProt P9WIQ1); assay: Inhibitors of Mycobacterium tuberculosis UDP-galactopyranose mutase (UGM) enzyme Measured in Biochemical System Using Plate Reader - 2105-02_Inhibitor_Dose_CherryPick_Activity. [Related pubchem assays (depositor defined):AID504439]
Sequence of UDP-galactopyranose mutase (P9WIQ1 whole entry): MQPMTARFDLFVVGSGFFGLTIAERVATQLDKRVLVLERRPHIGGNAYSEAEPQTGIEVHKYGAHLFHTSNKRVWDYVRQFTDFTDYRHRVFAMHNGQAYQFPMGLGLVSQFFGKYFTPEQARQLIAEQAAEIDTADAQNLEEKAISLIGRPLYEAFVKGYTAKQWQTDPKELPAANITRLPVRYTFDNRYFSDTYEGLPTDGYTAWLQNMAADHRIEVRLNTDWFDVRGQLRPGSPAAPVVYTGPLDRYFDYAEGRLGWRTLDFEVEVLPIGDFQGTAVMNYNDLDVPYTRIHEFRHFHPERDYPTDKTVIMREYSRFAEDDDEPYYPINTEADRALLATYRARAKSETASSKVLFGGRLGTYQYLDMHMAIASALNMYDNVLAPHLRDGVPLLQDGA

In the case of CCC(=O)Nc1cccc(NC(=O)c2ccccc2Br)c1, the AC50 [1] is reported as < 3.12 µM (active), the AC50 [2] is reported as 21.2 µM (active) and the EC50 [3] is reported as 14 µM (active). The EC50 [4] was < 1 µM (active), the EC50 [5] was > 112 µM (not active) and the EC50 [6] was 4.32 µM (active).
With Cc1c(NC(=O)c2cc(-n3cnnc3)ccc2Cl)cccc1-c1nc2ccccc2s1 the IC50 [7] was 18.3 µM (active).
With CCOc1cccc(-c2nc(C(N)=O)c3nc(O)n(-c4cccc(Cl)c4)c3n2)c1O the EC50 [8] was > 100 µM (inactive), the EC50 [9] was 4.9 µM (active) and the EC50 [10] was 2.41 µM (active). For the same molecule, the EC50 [11] was 3.66 µM (active).
In the case of COc1ccc(-c2nnc(-c3cccnc3)o2)cc1, the IC50 [12] is reported as > 32 µM (inactive) and the AC50 [13] is reported as 1.58 µM (inconclusive).
In the case of O=C(COc1ccccc1Cl)Nc1cc(Cl)ccc1Oc1ccccc1, the AC50 [14] is reported as 3.01 µM (active), the AC50 [15] is reported as 120 µM (active) and the AC50 [13] is reported as 15.8 µM (inconclusive).
For NC(=O)Cn1cc(C=C2C(=O)NC(=O)NC2=O)c2ccccc21, the EC50 [16] was > 300 µM (inconclusive), the EC50 [17] was > 300 µM (inconclusive) and the AC50 [18] was 82.3 µM (active).
